Consider 19 compounds from patent US8574563B2 (Bristol-Myers Squibb Company, priority 2006, dated 2013).

In this experiment the test system is HCV 1b-377-neo replicon cells. The experiment in a line: HCV replicon assay, HCV 1b-377-neo replicon cells (1b FRET). As to conditions: Hepatitis C virus, HCV 1b-377-neo replicon cells; HCV 1b genotype; read-out: EC50 range against HCV 1b (Table 2, Range). The experiment is classed as cell-based, Hepatitis C virus genotype 1b. A digest of the protocol:
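Compounds tested in HCV genotype 1b-377-neo replicon cells with a FRET read-out. Cells resistant to a reference NS5A inhibitor through a Y2065H NS5A mutation were run alongside wild-type cells.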
Usually EC50 stands for the concentration giving half of the maximal effect. For `COC(=O)NCC(=O)N1CCC[C@H]1c1ncc(-c2ccc(-c3ccc(-c4cnc([C@@H]5CCCN5C(=O)[C@H](NC(=O)OC)c5ccccc5)[nH]4)cc3)cc2)[nH]1` [Example 40, methyl (2-((2S)-2-(5-(4′-(2-((2S)-1-((2R)-2-((methoxycarbonyl)amino)-2-phenylacetyl)-2-pyrrolidinyl)-1H-imidazol-5-yl)-4-biphenylyl)-1H-imidazol-2-yl)-1-pyrrolidinyl)-2-oxoethyl)carbamate], the EC50 lay in the range of 0.001 to 0.999 nM.

As for `COC(=O)N[C@@H](C(=O)N1CCC[C@H]1c1ncc(-c2ccc(-c3ccc(-c4cnc([C@@H]5CCCN5C(=O)[C@@H](c5ccccc5)N(C)C)[nH]4)cn3)cc2)[nH]1)c1ccccc1` [Example 140, methyl ((1R)-2-((2S)-2-(5-(4-(5-(2-((2S)-1-((2R)-2-(dimethylamino)-2-phenylacetyl)-2-pyrrolidinyl)-1H-imidazol-5-yl)-2-pyridinyl)phenyl)-1H-imidazol-2-yl)-1-pyrrolidinyl)-2-oxo-1-phenylethyl)carbamate], the EC50 was in the range of 0.001 to 0.999 nM.

For the compound `COC(=O)N[C@H](C(=O)N1CCC[C@H]1c1ncc(-c2ccc(-c3ccc(-c4cnc([C@@H]5CC(F)(F)CN5C(=O)[C@@H](NC(=O)OC)C(C)C)[nH]4)cc3)cc2)[nH]1)C(C)C` [OL-12, methyl ((1S)-1-(((2S)-2-(4-(4′-(2-((2S)-4,4-difluoro-1-((2S)-2-((methoxycarbonyl)amino)-3-methylbutanoyl)-2-pyrrolidinyl)-1H-imidazol-4-yl)-4-biphenylyl)-1H-imidazol-2-yl)-1-pyrrolidinyl)carbonyl)-2-methylpropyl)carbamate], the EC50 lay within 0.001 to 0.999 nM.

For `COC(=O)N[C@@H](C(=O)N1CCC[C@H]1c1ncc(-c2ccc(-c3ccc(-c4cnc([C@@H]5CCCN5C(=O)CN5CCOCC5)[nH]4)cc3)cc2)[nH]1)c1ccccc1` [Example 39, methyl ((1R)-2-((2S)-2-(5-(4′-(2-((2S)-1-(4-morpholinylacetyl)-2-pyrrolidinyl)-1H-imidazol-5-yl)-4-biphenylyl)-1H-imidazol-2-yl)-1-pyrrolidinyl)-2-oxo-1-phenylethyl)carbamate], the EC50 was 0.001 to 0.999 nM.

In the case of `COC(=O)N[C@@H](C(=O)N(C)[C@@H](C)c1ncc(-c2ccc(-c3ncc(-c4cnc([C@@H]5CCCN5C(=O)[C@@H](c5ccccc5)N5CCCCC5)[nH]4)cn3)cc2)[nH]1)c1ccccc1` [Example 152l-1, methyl ((1R)-2-(methyl((1S)-1-(4-(4-(5-(2-((2S)-1-((2R)-2-phenyl-2-(1-piperidinyl)acetyl)-2-pyrrolidinyl)-1H-imidazol-5-yl)-2-pyrimidinyl)phenyl)-1H-imidazol-2-yl)ethyl)amino)-2-oxo-1-phenylethyl)carbamate], the EC50 is 0.001 to 0.999 nM.

For `CCCc1[nH]c([C@@H]2CCCN2C(=O)[C@@H](NC(=O)OC)C(C)C)nc1-c1ccc(-c2ccc(-c3cnc([C@@H]4CCCN4C(=O)[C@@H](NC(=O)OC)C(C)C)[nH]3)cc2)cc1` [Example J14c.2, methyl ((1S)-1-(((2S)-2-(4-(4′-(2-((2S)-1-((2S)-2-((methoxycarbonyl)amino)-3-methylbutanoyl)-2-pyrrolidinyl)-1H-imidazol-4-yl)-4-biphenylyl)-5-propyl-1H-imidazol-2-yl)-1-pyrrolidinyl)carbonyl)-2-methylpropyl)carbamate], the half-maximal effective concentration (EC50) lay within 0.001 to 0.999 nM.

For `COC(=O)N[C@@H](Cc1ccc(OP(=O)(O)OC)cc1)C(=O)N1CCC[C@H]1c1ncc(-c2ccc(-c3ccc(-c4cnc([C@@H]5CCCN5C(=O)[C@@H](NC(=O)OC)[C@@H](C)OC)[nH]4)cc3)cc2)[nH]1` [cj-92, methyl ((1S,2R)-1-(((2S)-2-(5-(4′-(2-((2S)-1-(O-(hydroxy(methoxy)phosphoryl)-N-(methoxycarbonyl)-L-tyrosyl)-2-pyrrolidinyl)-1H-imidazol-5-yl)-4-biphenylyl)-1H-imidazol-2-yl)-1-pyrrolidinyl)carbonyl)-2-methoxypropyl)carbamate], the EC50 lay within 1 to 99 nM.

For `O=C(N[C@@H](C(=O)N1CCC[C@H]1c1ncc(-c2ccc(-c3ccc(-c4cnc([C@@H]5CCCN5C(=O)[C@@H]5CCCO5)[nH]4)cc3)cc2)[nH]1)c1ccccc1)N1CCOCC1` [Example 111, N-((1R)-2-oxo-1-phenyl-2-((2S)-2-(5-(4′-(2-((2S)-1-((2S)-tetrahydro-2-furanylcarbonyl)-2-pyrrolidinyl)-1H-imidazol-5-yl)-4-biphenylyl)-1H-imidazol-2-yl)-1-pyrrolidinyl)ethyl)-4-morpholinecarboxamide], the EC50 was in the range of 0.001 to 0.999 nM.

For `O=C([C@@H]1CCN(Cc2ccccc2)C1)N1CCC[C@H]1c1ncc(-c2ccc(-c3ccc(-c4cnc([C@@H]5CCCN5C(=O)[C@@H](c5ccccc5)N5CCCCC5)[nH]4)cc3)cc2)[nH]1` [Example 107-17], the EC50 is 0.001 to 0.999 nM.

For the compound `COC(=O)N[C@@H](C(=O)N1CCC[C@H]1c1ncc(-c2ccc(-c3ccc(-c4cnc([C@@H]5CCCN5C(=O)Cc5cccc(Cl)c5)[nH]4)cc3)cc2)[nH]1)c1ccccc1` [Example 84-67, methyl ((1R)-2-((2S)-2-(5-(4′-(2-((2S)-1-((3-chlorophenyl)acetyl)-2-pyrrolidinyl)-1H-imidazol-5-yl)-4-biphenylyl)-1H-imidazol-2-yl)-1-pyrrolidinyl)-2-oxo-1-phenylethyl)carbamate], the EC50 lay within 0.001 to 0.999 nM.

Consider `COC(=O)N[C@@H](C(=O)N1CCC[C@H]1c1ncc(-c2ccc(-c3ccc(-c4cnc([C@@H]5CCCN5C(=O)c5cscn5)[nH]4)cc3)cc2)[nH]1)c1ccccc1` [Example 84-44, methyl ((1R)-2-oxo-1-phenyl-2-((2S)-2-(5-(4′-(2-((2S)-1-(1,3-thiazol-4-ylcarbonyl)-2-pyrrolidinyl)-1H-imidazol-5-yl)-4-biphenylyl)-1H-imidazol-2-yl)-1-pyrrolidinyl)ethyl)carbamate], for which the EC50 lay within 0.001 to 0.999 nM.

Take `COC(=O)N[C@@H](C(=O)N1CCC[C@H]1c1ncc(-c2ccc(-c3ccc(-c4cnc([C@@H]5CCCN5C(=O)[C@@H](c5ccccc5Cl)N(C)C)[nH]4)cc3)cc2)[nH]1)c1ccccc1Cl` [Example 107-44, methyl ((1R)-1-(2-chlorophenyl)-2-((2S)-2-(5-(4′-(2-((2S)-1-((2R)-2-(2-chloro-phenyl)-2-(dimethylamino)acetyl)-2-pyrrolidinyl)-1H-imidazol-5-yl)-4-biphenylyl)-1H-imidazol-2-yl)-1-pyrrolidinyl)-2-oxoethyl) carbamate]: the EC50 lay within 0.001 to 0.999 nM.

On to `COC(=O)N[C@H](C(=O)N1CC(F)(F)C[C@H]1c1ncc(-c2ccc(-c3ccc(-c4cnc([C@@H]5CC(F)(F)CN5C(=O)[C@@H](NC(=O)OC)C(C)C)[nH]4)cc3)cc2)[nH]1)C(C)C` [OL-7, methyl ((1S)-1-(((2S)-2-(4-(4′-(2-((2S)-4,4-difluoro-1-((2S)-2-((methoxycarbonyl)amino)-3-methylbutanoyl)-2-pyrrolidinyl)-1H-imidazol-4-yl)-4-biphenylyl)-1H-imidazol-2-yl)-4,4-difluoro-1-pyrrolidinyl)carbonyl)-2-methylpropyl)carbamate], for which the EC50 was in the range of 0.001 to 0.999 nM.

For the compound `CCN(CC)[C@@H](C(=O)N1CCC[C@H]1c1ncc(-c2ccc(-c3ccc(-c4cnc([C@@H]5CCCN5C(=O)CNC(=O)OC)[nH]4)cc3)cc2)[nH]1)c1ccccc1` [Example M50, methyl (2-((2S)-2-(5-(4′-(2-((2S)-1-((2R)-2-(diethylamino)-2-phenylacetyl)-2-pyrrolidinyl)-1H-imidazol-5-yl)-4-biphenylyl)-1H-imidazol-2-yl)-1-pyrrolidinyl)-2-oxoethyl)carbamate], the concentration giving a half-maximal response (EC50) lay within 1 to 99 nM.

Take `COC(=O)N[C@@H](C(=O)N1CCC[C@H]1c1ncc(-c2ccc(-c3ccc(-c4cnc([C@@H]5CCCN5C(=O)[C@@H]5C[C@@H](F)CN5C)[nH]4)cc3)cc2)[nH]1)c1ccccc1` [Example 70, methyl ((1R)-2-((2S)-2-(5-(4′-(2-((2S)-1-((4R)-4-fluoro-1-methyl-L-prolyl)-2-pyrrolidinyl)-1H-imidazol-5-yl)-4-biphenylyl)-1H-imidazol-2-yl)-1-pyrrolidinyl)-2-oxo-1-phenylethyl)carbamate]: the EC50 was in the range of 1 to 99 nM.

For the compound `CNCC(=O)N1CCC[C@H]1c1ncc(-c2ccc(-c3ccc(-c4cnc([C@@H]5CCCN5C(=O)[C@@H](NC(=O)OC)C(C)C)[nH]4)cc3)cc2)[nH]1` [LS20, methyl ((1S)-2-methyl-1-(((2S)-2-(5-(4′-(2-((2S)-1-(N-methylglycyl)-2-pyrrolidinyl)-1H-imidazol-5-yl)-4-biphenylyl)-1H-imidazol-2-yl)-1-pyrrolidinyl)carbonyl)propyl)carbamate], the EC50 lay in the range of 0.001 to 0.999 nM.

As for `COC(=O)NCC(=O)N1CC2(CC2)C[C@H]1c1nc(-c2ccc(-c3ccc(-c4c[nH]c([C@@H]5CC6(CC6)CN5C(=O)CNC(=O)OC)n4)cc3)cc2)c[nH]1` [Example M146, methyl (2-((6S)-6-(4-(4′-(2-((6S)-5-(((methoxycarbonyl)amino)acetyl)-5-azaspiro[2.4]hept-6-yl)-1H-imidazol-4-yl)-4-biphenylyl)-1H-imidazol-2-yl)-5-azaspiro[2.4]hept-5-yl)-2-oxoethyl)carbamate], the EC50 fell in the range of 0.001 to 0.999 nM.

In the case of `COC(=O)N[C@@H](C(=O)N1[C@@H](C)CC[C@H]1c1nc(-c2ccc(-c3ccc(-c4c[nH]c([C@@H]5CC[C@H](C)N5C(=O)[C@H](NC(=O)OC)c5ccccc5)n4)cc3)cc2)c[nH]1)c1ccccc1` [Example M153, dimethyl (4,4′-biphenyldiylbis(1H-imidazole-4,2-diyl((2S,5S)-5-methyl-2,1-pyrrolidinediyl)((1R)-2-oxo-1-phenyl-2,1-ethanediyl)))biscarbamate], the EC50 was 0.001 to 0.999 nM.

On to `CC(=O)N1[C@@H](C)CC[C@H]1c1ncc(-c2ccc(-c3ccc(-c4cnc([C@@H]5CC[C@H](C)N5C(C)=O)[nH]4)cc3)cc2)[nH]1` (stereo in doubt) [Example M162, 2-((2S,5S)-1-acetyl-5-methyl-2-pyrrolidinyl)-4-(4′-(2-((2S,5S)-1-acetyl-5-methyl-2-pyrrolidinyl)-1H-imidazol-5-yl)-4-biphenylyl)-1H-imidazole], for which the EC50 is 1 to 99 nM.
